According to the supplement of paper PMC10307832:

What was measured:
Experiment in all cases: relative viability (nuclei count vs DMSO), 5 days (fraction); higher = more cells survive
LK-2 = test system: LK-2
Summary of the method: (§1)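 After 5 days of treatment, lung cancer cells in 1536-well plates were fixed and stained in a single step (final 0.05% Triton X-100, 1% formaldehyde, 1 ug/ml Hoechst) and their nuclei counted on 4× images. Treatment had been applied by pin tool the day after seeding as one drug alone or as a fixed anchor-drug dose with five library-drug doses (not always all listed) in √10 steps. Relative viability is the nuclei count of treated wells divided by that of vehicle wells, and values are medians of duplicate plates.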

NCI-H661 = test system: NCI-H661
Summary of the method: as §1

CAL-12T = test system: CAL-12T
Summary of the method: as §1

HCC-827 = test system: HCC-827
Summary of the method: as §1

NCI-H322M = test system: NCI-H322M
Summary of the method: as §1

NCI-H520 = test system: NCI-H520
Summary of the method: as §1

NCI-H1355 = test system: NCI-H1355
Summary of the method: as §1

ABC-1 = test system: ABC-1
Summary of the method: as §1

NCI-H1437 = test system: NCI-H1437
Summary of the method: as §1

HCC-15 = test system: HCC-15
Summary of the method: as §1

RERF-LC-KJ = test system: RERF-LC-KJ
Summary of the method: as §1

SW 1573 = test system: SW 1573
Summary of the method: as §1

NCI-H1734 = test system: NCI-H1734
Summary of the method: as §1

EKVX = test system: EKVX
Summary of the method: as §1

COR-L23 = test system: COR-L23
Summary of the method: as §1

H3255 = test system: H3255
Summary of the method: as §1

NCI-H1563 = test system: NCI-H1563
Summary of the method: as §1

NCI-H2228 = test system: NCI-H2228
Summary of the method: as §1

NCI-H2405 = test system: NCI-H2405
Summary of the method: as §1

PC-3 [JPC-3] = test system: PC-3 [JPC-3]
Summary of the method: as §1

PC-14 = test system: PC-14
Summary of the method: as §1

SMILES: NC(=O)Nc1cc(-c2cccc(F)c2)sc1C(=O)N[C@H]1CCCNC1 [AZD7762] + C[C@]1(O)C[C@@H](c2nc(-c3ccc4ccc(-c5ccccc5)nc4c3)c3c(N)nccn32)C1 [Linsitinib] (partner 1 µM)
- relative viability (LK-2; first compound 0.01 µM): 0.691
- relative viability (LK-2; first compound 0.03162 µM): 0.597
- relative viability (LK-2; first compound 0.1 µM): 0.618
- relative viability (LK-2; first compound 0.3162 µM): 0.645
- relative viability (LK-2; first compound 1 µM): 0.308
- relative viability (NCI-H661; first compound 0.01 µM): 0.681
- relative viability (NCI-H661; first compound 0.03162 µM): 0.546
- relative viability (NCI-H661; first compound 0.1 µM): 0.444
- relative viability (NCI-H661; first compound 0.3162 µM): 0.501
- relative viability (NCI-H661; first compound 1 µM): 0.293
- relative viability (CAL-12T; first compound 0.01 µM): 0.91
- relative viability (CAL-12T; first compound 0.03162 µM): 0.725
- relative viability (CAL-12T; first compound 0.1 µM): 0.984
- relative viability (CAL-12T; first compound 0.3162 µM): 0.844
- relative viability (CAL-12T; first compound 1 µM): 0.288
- relative viability (HCC-827; first compound 0.01 µM): 1.06
- relative viability (HCC-827; first compound 0.03162 µM): 0.994
- relative viability (HCC-827; first compound 0.1 µM): 0.922
- relative viability (HCC-827; first compound 0.3162 µM): 0.961
- relative viability (HCC-827; first compound 1 µM): 0.863
- relative viability (NCI-H322M; first compound 0.01 µM): 1.02
- relative viability (NCI-H322M; first compound 0.03162 µM): 1.03
- relative viability (NCI-H322M; first compound 0.1 µM): 0.92
- relative viability (NCI-H322M; first compound 0.3162 µM): 0.987
- relative viability (NCI-H322M; first compound 1 µM): 0.84
- relative viability (NCI-H520; first compound 0.01 µM): 1.16
- relative viability (NCI-H520; first compound 0.03162 µM): 0.893
- relative viability (NCI-H520; first compound 0.1 µM): 0.848
- relative viability (NCI-H520; first compound 0.3162 µM): 0.551
- relative viability (NCI-H520; first compound 1 µM): 0.389
- relative viability (NCI-H1355; first compound 0.01 µM): 0.805
- relative viability (NCI-H1355; first compound 0.03162 µM): 0.811
- relative viability (NCI-H1355; first compound 0.1 µM): 0.766
- relative viability (NCI-H1355; first compound 0.3162 µM): 0.859
- relative viability (NCI-H1355; first compound 1 µM): 0.762
- relative viability (ABC-1; first compound 0.01 µM): 1.08
- relative viability (ABC-1; first compound 0.03162 µM): 0.839
- relative viability (ABC-1; first compound 0.1 µM): 0.925
- relative viability (ABC-1; first compound 0.3162 µM): 0.409
- relative viability (ABC-1; first compound 1 µM): 0.278
- relative viability (NCI-H1437; first compound 0.01 µM): 1.06
- relative viability (NCI-H1437; first compound 0.03162 µM): 0.991
- relative viability (NCI-H1437; first compound 0.1 µM): 0.982
- relative viability (NCI-H1437; first compound 0.3162 µM): 1.04
- relative viability (NCI-H1437; first compound 1 µM): 0.86
- relative viability (HCC-15; first compound 0.01 µM): 0.886
- relative viability (HCC-15; first compound 0.03162 µM): 0.918
- relative viability (HCC-15; first compound 0.1 µM): 0.915
- relative viability (HCC-15; first compound 0.3162 µM): 0.93
- relative viability (HCC-15; first compound 1 µM): 0.985
- relative viability (RERF-LC-KJ; first compound 0.01 µM): 0.923
- relative viability (RERF-LC-KJ; first compound 0.03162 µM): 0.879
- relative viability (RERF-LC-KJ; first compound 0.1 µM): 0.849
- relative viability (RERF-LC-KJ; first compound 0.3162 µM): 0.908
- relative viability (RERF-LC-KJ; first compound 1 µM): 0.842
- relative viability (SW 1573; first compound 0.01 µM): 0.843
- relative viability (SW 1573; first compound 0.03162 µM): 0.989
- relative viability (SW 1573; first compound 0.1 µM): 0.99
- relative viability (SW 1573; first compound 0.3162 µM): 0.891
- relative viability (SW 1573; first compound 1 µM): 0.752
- relative viability (NCI-H1734; first compound 0.01 µM): 0.885
- relative viability (NCI-H1734; first compound 0.03162 µM): 0.887
- relative viability (NCI-H1734; first compound 0.1 µM): 1.05
- relative viability (NCI-H1734; first compound 0.3162 µM): 0.869
- relative viability (NCI-H1734; first compound 1 µM): 0.734
- relative viability (EKVX; first compound 0.01 µM): 0.972
- relative viability (EKVX; first compound 0.03162 µM): 0.971
- relative viability (EKVX; first compound 0.1 µM): 0.844
- relative viability (EKVX; first compound 0.3162 µM): 0.873
- relative viability (EKVX; first compound 1 µM): 0.507
- relative viability (COR-L23; first compound 0.01 µM): 1.11
- relative viability (COR-L23; first compound 0.03162 µM): 0.916
- relative viability (COR-L23; first compound 0.1 µM): 0.98
- relative viability (COR-L23; first compound 0.3162 µM): 0.799
- relative viability (COR-L23; first compound 1 µM): 0.18
- relative viability (H3255; first compound 0.01 µM): 0.931
- relative viability (H3255; first compound 0.03162 µM): 1.04
- relative viability (H3255; first compound 0.1 µM): 0.969
- relative viability (H3255; first compound 0.3162 µM): 0.947
- relative viability (H3255; first compound 1 µM): 0.817
- relative viability (NCI-H1563; first compound 0.01 µM): 1.25
- relative viability (NCI-H1563; first compound 0.03162 µM): 1.25
- relative viability (NCI-H1563; first compound 0.1 µM): 1.46
- relative viability (NCI-H1563; first compound 0.3162 µM): 1.12
- relative viability (NCI-H1563; first compound 1 µM): 0.953
- relative viability (NCI-H2228; first compound 0.01 µM): 0.792
- relative viability (NCI-H2228; first compound 0.03162 µM): 0.478
- relative viability (NCI-H2228; first compound 0.1 µM): 0.734
- relative viability (NCI-H2228; first compound 0.3162 µM): 0.289
- relative viability (NCI-H2228; first compound 1 µM): 0.242
- relative viability (NCI-H2405; first compound 0.01 µM): 1
- relative viability (NCI-H2405; first compound 0.03162 µM): 0.929
- relative viability (NCI-H2405; first compound 0.1 µM): 0.86
- relative viability (NCI-H2405; first compound 0.3162 µM): 0.655
- relative viability (NCI-H2405; first compound 1 µM): 0.402
- relative viability (PC-3 [JPC-3]; first compound 0.01 µM): 0.929
- relative viability (PC-3 [JPC-3]; first compound 0.03162 µM): 0.966
- relative viability (PC-3 [JPC-3]; first compound 0.1 µM): 0.999
- relative viability (PC-3 [JPC-3]; first compound 0.3162 µM): 0.987
- relative viability (PC-3 [JPC-3]; first compound 1 µM): 0.927
- relative viability (PC-14; first compound 0.01 µM): 0.975
- relative viability (PC-14; first compound 0.03162 µM): 0.994
- relative viability (PC-14; first compound 0.1 µM): 0.995
- relative viability (PC-14; first compound 0.3162 µM): 0.891
- relative viability (PC-14; first compound 1 µM): 0.425
